A short description of data set [1]: Long term storage stability studies: HPLC, solutions stored at RT and 4° C. for up to 4 months. As to conditions: for Long term storage stability of vitamin solution: stored at RT or 4° C., 4 month period; for Time to achieve significant falls at 4° C.: aqueous solution stored at 4° C.; for Time to achieve significant falls at RT: aqueous solution stored at RT. On the procedure: Heat was applied by different methods, including placing the solution in a test tube in a bath of hot water (80° C. or 100° C.) for 15 minutes, or by mixing a concentrated solution with hot water or hot coffee (80° C. or 100° C. for both) for an equivalent time. Long term stability studies were carried out by storing individual vitamin solutions at room temperature and at 4° C. for up to 4 months and sampling these solutions at various intervals. Degradation was assessed by the change in peak area of the HPLC peak specific to each particular compound.
Vitamin solutions were prepared as for the Heat Stability Studies.
Replicate aliquots of these solutions were placed in four 15 mL Falcon tubes. Two of these tubes were stored on a shelf at room temperature (RT) in the laboratory and two in the cold room (4° C.).
At 0, 0.5, 1, 1.5, 2, 3.5, and 4 months, samples were taken from each vial for
HPLC analysis. The high concentration vitamin samples (vitamins BI, B3, B5, and B6) were diluted to 1:250 with Milli-Q water before injection and the low concentration vitamin samples (vitamins B2, B7, B9, and B12) were injected undiluted.
Samples from each of the duplicate solutions described above were injected onto the HPLC in duplicate. HPLC conditions were as described above.
Duplicate injections of the two samples were made and the mean of the four results was reported.
(§1) The percentage change in individual vitamin concentrations relative to the control sample was calculated as: 100×(Atest−Acontrol)/Acontrol, where Atest and Acontrol are peak area ratios (analyte/intemal standard) for the test and control solutions respectively.
For the heat stability studies, statistical analysis was performed by Students t-test. For the storage stability studies, statistical analysis was performed by univariate ANOVA (General Linear Model). All statistical analyses were performed with SPSS 16.

The conditions of data set [2]: water; cited from earlier work.
Data set [3] in a line: Heat stability studies: HPLC peak area change after heating, hot water or hot coffee. As to conditions: for Effect of heating solutions on vitamin concentration: heating to either 80° C. or 100° C. for 15 minutes; for % Deviation: vs control; for Vitamin degradation, Heat 80° C.: solution heated 80° C.; for Vitamin degradation, Heat 100° C.: solution heated 100° C.; for Effect of dilution with hot water and coffee on vitamin concentration: dilution with hot water or hot coffee, 80° C. or 100° C.; for Vitamin degradation, Water 80° C.: diluted with hot water 80° C.; for Vitamin degradation, Water 100° C.: diluted with hot water 100° C. The data set is classed as physicochemical. On the procedure: Vitamins were divided into two groups, depending on their solubility. “High concentration” vitamins were sufficiently soluble to be detected by the. HPLC analysis after 1/250 dilution. “Low concentration” vitamins were not sufficiently soluble and could not be detected after 1/250 dilution and therefore a different procedure was adopted for these compounds as described below.
High concentration vitamin (B1, B3, B5, B6) solutions
Solutions were prepared immediately before use in duplicate, using four different methods, described below: a. Dilute 1 mL of each standard solution to 250 mL with Milli-Q water at room temperature (control sample) […]
b. […] Then take a 1 mL sample from each tube and dilute to 250 mL with Milli-Q water at room temperature. c. Dilute 1 mL of each solution to 250 mL with hot water (80° C. or 100° C.). Leave for 15 minutes, then take a sample and cool immediately to room temperature. d. Dilute 1 mL of each solution to 250 mL with hot coffee (80° C. or 100° C.). Leave for 15 minutes, then take a sample and cool immediately to room temperature.
Low Concentration Vitamin (B2, B7, B9, B12) Solutions
Standard solutions were freshly prepared with Milli-Q water as described above. The test solutions below were then immediately prepared in duplicate: a. Use undiluted (control sample)
HPLC conditions were as described above.
as §1
All statistical analyses were performed with SPSS 16.

The mark [4] stands for this setting: greatest percentage change over the 4 month testing period, † non-significant, * significant, ‡ transient at 2 weeks.
Where [5] appears, read: low concentration vitamin solution, undiluted, heated to 80° C., 15 minutes.
The mark [6] stands for this setting: low concentration vitamin solution, undiluted, heated to 100° C., 15 minutes.
Where [7] appears, read: storage at RT and 4° C. for up to 4 months.
[8] abbreviates: high concentration vitamin solution, matrix coffee: diluted 1/250 with hot coffee 80° C., 15 minutes.
Where [9] appears, read: high concentration vitamin solution, matrix coffee: diluted 1/250 with hot coffee 100° C., 15 minutes.
[10] abbreviates: high concentration vitamin solution, matrix heated: tube in hot water 80° C., 15 minutes.
Where [11] appears, read: high concentration vitamin solution, matrix heated: tube in hot water 100° C., 15 minutes.
The mark [12] stands for this setting: high concentration vitamin solution, matrix hot water: diluted 1/250 with hot water 80° C., 15 minutes.
Where [13] appears, read: high concentration vitamin solution, matrix hot water: diluted 1/250 with hot water 100° C., 15 minutes.
Setting [14] is: up to 4 months, — = no significant fall.

The values below come from patent US20130015204A1, “SINGLE-USE CONTAINERS AND USES THEREOF” (priority 2009, published 2013).

Entries after “also recorded” stand apart in the source; their conditions may differ. Like-named read-outs stand apart in the source and are kept apart here.

Consider cyanocobalamin [Vitamin B12], for which, in data set [1] (setting [4]), the “Vitamin degradation, Storage 4° C.” value is reported as “† −1.4%” and the “Vitamin degradation, Storage RT” value is “† −1.2%”. Further, the “Long term storage stability of vitamin solution” value in data set [1] is listed as “stable; also recorded: no statistically significant degradation”. In addition, the Aq. solubility in data set [2] was 12.5 µg/mL. For the same compound, the “Effect of heating solutions on vitamin concentration” value (from here on “Effect of heating solutions”) in data set [3] is recorded as “not significantly affected”. For the same compound, in data set [3] (setting [5]), the “% Deviation” value is given as −0.14%. Further, in data set [3] (setting [6]), the “% Deviation” value was −0.18%. In data set [3] (summary, 15 minutes), the “Vitamin degradation, Heat 80° C.” value is “†† (non-significant reductions in vitamin concentrations of <2% in response to heat treatment)” and the “Vitamin degradation, Heat 100° C.” value is given as “†† (non-significant reductions in vitamin concentrations of <2% in response to heat treatment)”.

Regarding `O=C(O)CCCC[C@@H]1SC[C@@H]2NC(=O)N[C@@H]21` [Vitamin B7, biotin], in data set [1] (setting [4]), the “Vitamin degradation, Storage 4° C.” value is recorded as −27.4% ‡ and the “Vitamin degradation, Storage RT” value is given as −15.9% ‡. The “Comment (long term storage stability)” value in data set [1] (setting [7]) was “Stable for 4 months”. The “Long term storage stability of vitamin solution” value in data set [1] is reported as “varying levels of degradation; also recorded: no statistically significant degradation; also recorded: transient reductions”. The Aq. solubility in data set [2] was 220 µg/mL. Further, in data set [3], the “Effect of heating solutions” value was “not significantly affected”. Moreover, in data set [3] (setting [5]), the “% Deviation” value is −0.47%. The “% Deviation” value in data set [3] (setting [6]) is recorded as −1.89%. For the same compound, in data set [3] (summary, 15 minutes), the “Vitamin degradation, Heat 80° C.” value is recorded as “†† (non-significant reductions in vitamin concentrations of <2% in response to heat treatment)” and the “Vitamin degradation, Heat 100° C.” value is on record as “†† (non-significant reductions in vitamin concentrations of <2% in response to heat treatment)”.

Consider `NC(=O)c1cccnc1` [Vitamin B3, niacinamide], for which, in data set [1] (setting [4]), the “Vitamin degradation, Storage 4° C.” value is “† −1.1%” and the “Vitamin degradation, Storage RT” value is on record as “† −1.8%”. Besides, the “Comment (long term storage stability)” value in data set [1] (setting [7]) is on record as “Stable for 4 months”. The “Long term storage stability of vitamin solution” value in data set [1] is recorded as “stable; also recorded: no statistically significant degradation”. In addition, in data set [3], the “Effect of dilution with hot water and coffee on vitamin concentration” value (“Effect of dilution” below) is “Statistically significant reductions”; the “Effect of heating solutions” value is “not affected”. Moreover, the “% Deviation” value in data set [3] (setting [8]) is on record as −3.72%. The “% Deviation” value in data set [3] (setting [9]) is −3.62%. Moreover, the “% Deviation” value in data set [3] (setting [10]) is listed as −0.24%. In addition, in data set [3] (setting [11]), the “% Deviation” value is −0.86%. The “% Deviation” value in data set [3] (setting [12]) is recorded as 0.33%. Also, in data set [3] (setting [13]), the “% Deviation” value worked out at 0.4%. In data set [3] (summary, 15 minutes), the “Vitamin degradation, Water 80° C.” value is recorded as “†† (non-significant reductions in vitamin concentrations of <2% in response to heat treatment)”; the “Vitamin degradation, Water 100° C.” value is “†† (non-significant reductions in vitamin concentrations of <2% in response to heat treatment)”; the “Vitamin degradation, Heat 80° C.” value is recorded as “†† (non-significant reductions in vitamin concentrations of <2% in response to heat treatment)”; the “Vitamin degradation, Heat 100° C.” value is reported as “†† (non-significant reductions in vitamin concentrations of <2% in response to heat treatment)”.

For the compound `Cc1ncc(CO)c(CO)c1O.Cl` [Vitamin B6, pyroxidine hydrochloride], the “Comment (long term storage stability)” value in data set [1] was “Stable for 4 months”. In addition, in data set [1], the “Vitamin degradation, Storage 4° C.” value is “† −2.5%”. Also, in data set [1], the “Vitamin degradation, Storage RT” value is listed as “† −1.5%”. In data set [3], the “Effect of dilution” value was “unaffected”. For the same compound, the “Effect of heating solutions” value in data set [3] is reported as “not affected”. Also, the “% Deviation” value was −0.63% in data set [3] (setting [8]); −1.47% in data set [3] (setting [9]); 0.05% in data set [3] (setting [10]); −0.28% in data set [3] (setting [11]); 1.39% in data set [3] (setting [12]); 1.64% in data set [3] (setting [13]).

For the compound calcium (+)-pantothenate [Vitamin B5], in data set [1] (setting [14]), the “Time to achieve significant falls at 4° C.” value is reported as 2 weeks. The “Time to achieve significant falls at RT” value in data set [1] (up to 4 months) amounted to 1.5 months. The “Vitamin degradation, Storage 4° C.” value in data set [1] (setting [4]) is −3.9% *. Moreover, the “Vitamin degradation, Storage RT” value in data set [1] (setting [4]) is listed as −3.3% *. Moreover, in data set [1] (storage at RT and 4° C.), the “Comment: Falls sustained to” value was 4 months. In addition, the “Comment: size of falls at all times” value in data set [1] (storage at RT and 4° C., up to 4 months) is listed as under 5%. In addition, the “Degradation at any time for either temperature” value in data set [1] (storage at RT or 4° C., entire 4 month test period) is “less than 4%”. Moreover, in data set [1], the “Long term storage stability of vitamin solution” value is on record as “varying levels of degradation; also recorded: significant degradation”. The “Effect of dilution” value in data set [3] is “unaffected”. Besides, the “Effect of heating solutions” value in data set [3] is “Statistically significant reductions”. Further, the “% Deviation” value in data set [3] (setting [8]) is recorded as 1.78%; in data set [3] (setting [9]), 0.31%; in data set [3] (setting [10]) it was −2.78%; in data set [3] (setting [11]), −2.27%; in data set [3] (setting [12]), −0.77%; in data set [3] (setting [13]) it was −1.15%. The “Vitamin degradation, Coffee 80° C.” value in data set [3] (summary, diluted with hot coffee 80° C., 15 minutes) is recorded as “†† (non-significant reductions in vitamin concentrations of <2% in response to heat treatment)”. Also, the “Vitamin degradation, Coffee 100° C.” value in data set [3] (summary, diluted with hot coffee 100° C., 15 minutes) was “†† (non-significant reductions in vitamin concentrations of <2% in response to heat treatment)”. The “Vitamin degradation, Water 80° C.” value in data set [3] (summary, 15 minutes) was “†† (non-significant reductions in vitamin concentrations of <2% in response to heat treatment)”. Moreover, the “Vitamin degradation, Water 100° C.” value in data set [3] (summary, 15 minutes) is recorded as “†† (non-significant reductions in vitamin concentrations of <2% in response to heat treatment)”.

In the case of `Cc1cc2nc3c(=O)[nH]c(=O)nc-3n(C[C@H](O)[C@H](O)[C@H](O)CO)c2cc1C` [Vitamin B2, riboflavin], in data set [1] (setting [14]), the “Time to achieve significant falls at 4° C.” value was determined as 2 weeks and the “Time to achieve significant falls at RT” value is 2 weeks. Moreover, in data set [1] (setting [4]), the “Vitamin degradation, Storage 4° C.” value is on record as −33.6% * and the “Vitamin degradation, Storage RT” value is recorded as −24.7% *. Moreover, in data set [1] (storage at 4° C., 2 weeks), the “Degradation after 2 weeks at 4° C.” value came to 33.6%. Also, the “Comment: Falls sustained to” value in data set [1] (storage at RT and 4° C.) worked out at 4 months. Moreover, the “Degradation after 2 weeks at RT” value in data set [1] (storage at RT, 2 weeks) is 24.7%. Besides, the “Long term storage stability of vitamin solution” value in data set [1] was “varying levels of degradation; also recorded: little further degradation; also recorded: Significant degradation”. For the same compound, in data set [3], the “Effect of heating solutions” value is “not significantly affected”. The “% Deviation” value in data set [3] (setting [5]) came out at 1.5%. Moreover, the “% Deviation” value in data set [3] (setting [6]) came to 2.85%.
